Laboratory results as given in PubChem BioAssay (NCI).
Where “and” joins values, the source holds several entries; their conditions need not be identical. Equal values may be shown once.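 Compound exposure: 48 hours, 5 concentrations, 96-well plates. GI50 = concentration required for 50% inhibition of growth. At the TGI there is no net growth.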

Key:
Assay in all cases: NCI tumour cell line growth inhibition, 48 h
[1] = test system: MDA-MB-435
[2] = test system: U251 CNS
[3] = test system: A498 renal
[4] = test system: UACC-257 melanoma
[5] = test system: RXF 393 renal
[6] = test system: HOP-62 NSCLC
[7] = test system: CAKI-1 renal
[8] = test system: NCI/ADR-RES ovarian
[9] = test system: IGROV1 ovarian
[10] = test system: MOLT-4 leukemia
[11] = test system: TK-10 renal
[12] = test system: NCI-H522 lung
[13] = test system: NCI-H226 lung
[14] = test system: SF-539 CNS
[15] = test system: DU-145 prostate
[16] = test system: KM12 colon
[17] = test system: OVCAR-8 ovarian
[18] = test system: A549 NSCLC
[19] = test system: SF-295 CNS
[20] = test system: HCC-2998 colon
[21] = test system: CCRF-CEM leukemia
[22] = test system: UACC-62 melanoma
[23] = test system: HCT-15 colon
[24] = test system: BT-549 breast
[25] = test system: SK-OV-3 ovarian
[26] = test system: LOX IMVI melanoma
[27] = test system: HT29 colon
[28] = test system: MALME-3M melanoma
[29] = test system: M14 melanoma
[30] = test system: HCT-116 colon
[31] = test system: SK-MEL-28 melanoma
[32] = test system: SW-620 colon
[33] = test system: SN12C renal
[34] = test system: ACHN renal
[35] = test system: HS 578T breast
[36] = test system: SK-MEL-5 melanoma
[37] = test system: HOP-92 NSCLC
[38] = test system: SK-MEL-2 melanoma
[39] = test system: OVCAR-3 ovarian
[40] = test system: OVCAR-4 ovarian
[41] = test system: RPMI-8226 leukemia
[42] = test system: OVCAR-5 ovarian
[43] = test system: T-47D breast
[44] = test system: COLO 205 colon
[45] = test system: SNB-19 CNS
[46] = test system: MCF7 breast
[47] = test system: NCI-H23 lung
[48] = test system: PC-3 prostate
[49] = test system: MDA-MB-231 breast
[50] = test system: UO-31 renal
[51] = test system: 786-0 renal
[52] = test system: EKVX NSCLC
[53] = test system: MDA-N
[54] = test system: SF-268 CNS
[55] = test system: NCI-H460 lung
[56] = test system: HL-60(TB) leukemia

With Nc1nc(N)c2ncn(-c3ccccc3)c2n1 the TGI [1] was > 100 µM, the TGI [2] was > 100 µM and the TGI [3] was > 100 µM. For the same compound, the TGI [4] was > 100 µM, the TGI [5] was > 100 µM and the TGI [6] was > 100 µM. For the same compound, the TGI [7] was > 100 µM, the TGI [8] was > 100 µM and the TGI [9] was > 100 µM. For the same compound, the TGI [10] was > 100 µM, the TGI [11] was > 100 µM and the TGI [12] was > 100 µM. For the same compound, the TGI [13] was > 100 µM, the GI50 [14] was > 100 µM and 49.2 µM and the TGI [14] was > 100 µM. For the same compound, the TGI [15] was > 100 µM, the TGI [16] was > 100 µM and the TGI [17] was > 100 µM. For the same compound, the TGI [18] was > 100 µM, the TGI [19] was > 100 µM and the TGI [20] was > 100 µM. For the same compound, the TGI [21] was > 100 µM, the TGI [22] was > 100 µM and the TGI [23] was > 100 µM. For the same compound, the TGI [24] was > 100 µM, the TGI [25] was > 100 µM and the TGI [26] was > 100 µM. For the same compound, the TGI [27] was > 100 µM, the TGI [28] was > 100 µM and the TGI [29] was > 100 µM. The TGI [30] was > 100 µM, the TGI [31] was > 100 µM and the TGI [32] was > 100 µM. For the same compound, the TGI [33] was > 100 µM, the TGI [34] was > 100 µM and the TGI [35] was > 100 µM. For the same compound, the TGI [36] was > 100 µM, the TGI [37] was > 100 µM and the TGI [38] was > 100 µM. The TGI [39] was > 100 µM, the GI50 [40] was 21.8 µM and > 100 µM and the TGI [40] was > 100 µM. For the same compound, the TGI [41] was > 100 µM, the TGI [42] was > 100 µM and the TGI [43] was > 100 µM. For the same compound, the TGI [44] was > 100 µM, the TGI [45] was > 100 µM and the TGI [46] was > 100 µM. For the same compound, the TGI [47] was > 100 µM, the TGI [48] was > 100 µM and the TGI [49] was > 100 µM. The TGI [50] was > 100 µM, the TGI [51] was > 100 µM and the GI50 [52] was 43.3 µM and 89.6 µM. The TGI [52] was > 100 µM, the TGI [53] was > 100 µM and the TGI [54] was > 100 µM.

In the case of COC(=O)[C@@H](OC(C)=O)[C@@H](OC(C)=O)c1nnc2ccc(Cl)nn12, the TGI [1] is reported as > 100 µM, the TGI [2] is reported as > 100 µM and the TGI [3] is reported as > 100 µM. For the same compound, the TGI [4] was > 100 µM, the TGI [5] was > 100 µM and the TGI [6] was > 100 µM. For the same compound, the TGI [7] was > 100 µM, the TGI [8] was > 100 µM and the TGI [9] was > 100 µM. The TGI [10] was > 100 µM, the TGI [11] was > 100 µM and the TGI [12] was 95.3 µM. The TGI [14] was > 100 µM, the TGI [15] was > 100 µM and the TGI [16] was > 100 µM. For the same compound, the TGI [17] was > 100 µM, the TGI [18] was > 100 µM and the TGI [19] was > 100 µM. The TGI [20] was > 100 µM, the TGI [21] was > 100 µM and the TGI [22] was > 100 µM. The TGI [23] was > 100 µM, the TGI [24] was > 100 µM and the TGI [25] was > 100 µM. For the same compound, the TGI [55] was > 100 µM, the TGI [26] was > 100 µM and the TGI [27] was > 100 µM. The TGI [28] was > 100 µM, the TGI [29] was > 100 µM and the TGI [30] was > 100 µM. For the same compound, the TGI [31] was > 100 µM, the TGI [32] was > 100 µM and the TGI [33] was > 100 µM. The TGI [34] was > 100 µM, the TGI [35] was > 100 µM and the TGI [36] was > 100 µM. For the same compound, the TGI [38] was > 100 µM, the TGI [56] was > 100 µM and the TGI [39] was > 100 µM. For the same compound, the TGI [40] was > 100 µM, the TGI [41] was > 100 µM and the TGI [42] was > 100 µM. For the same compound, the TGI [43] was > 100 µM, the TGI [44] was > 100 µM and the TGI [45] was > 100 µM. The TGI [46] was > 100 µM, the TGI [47] was > 100 µM and the TGI [48] was > 100 µM. For the same compound, the TGI [49] was > 100 µM, the TGI [51] was > 100 µM and the TGI [52] was > 100 µM. The TGI [53] was > 100 µM and the TGI [54] was > 100 µM.
